Like-named read-outs stand apart in the source and are kept apart here. Some results are limits rather than exact numbers.

For two compounds, inhibition and IC50 results are on record in article PMC4076210, “Discovery of Novel AKT Inhibitors with Enhanced Anti-Tumor Effects in Combination with the MEK Inhibitor” (PLoS ONE, 2014).

Assay type in all cases: biochemical
The target of test [1] is T1, CaMKIIβ(h) (Homo sapiens, UniProt Q13554).
T1 construct: purchased Millipore KinaseProfiler
Put plainly: Kinase panel.

The target in test [2] is T2, CHK1(h) (Homo sapiens, UniProt O14757).
T2 construct: purchased Millipore KinaseProfiler
T2 sequence (O14757 1-476): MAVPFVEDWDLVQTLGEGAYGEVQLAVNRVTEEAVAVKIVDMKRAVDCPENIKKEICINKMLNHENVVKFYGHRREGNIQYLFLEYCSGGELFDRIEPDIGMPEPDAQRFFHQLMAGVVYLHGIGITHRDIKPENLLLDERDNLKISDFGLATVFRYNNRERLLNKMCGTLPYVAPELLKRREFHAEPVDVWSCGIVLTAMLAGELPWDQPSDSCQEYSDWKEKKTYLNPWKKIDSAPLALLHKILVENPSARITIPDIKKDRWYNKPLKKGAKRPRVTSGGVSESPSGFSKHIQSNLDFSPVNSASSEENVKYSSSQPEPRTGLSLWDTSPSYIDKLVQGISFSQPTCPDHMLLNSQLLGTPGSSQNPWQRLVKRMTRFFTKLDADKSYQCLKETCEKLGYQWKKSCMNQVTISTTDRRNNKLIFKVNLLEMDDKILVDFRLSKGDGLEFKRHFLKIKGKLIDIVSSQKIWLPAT
Put plainly: Kinase panel.

The target of test [3] is T3, CHK2(I157T)(h) (Homo sapiens, UniProt O96017, I157T).
T3 construct: purchased Millipore KinaseProfiler
Put plainly: Kinase panel.

Test [4] deals with T4, EGFR(T790M)(h) (Homo sapiens, UniProt P00533, T790M).
T4 construct: purchased Millipore KinaseProfiler
Nature of the test: Kinase panel.

The target of test [5] is T5, Flt3(D835Y)(h) (Homo sapiens, UniProt P36888, D835Y).
T5 construct: purchased Millipore KinaseProfiler
T5 sequence (P36888 27-993 D835Y): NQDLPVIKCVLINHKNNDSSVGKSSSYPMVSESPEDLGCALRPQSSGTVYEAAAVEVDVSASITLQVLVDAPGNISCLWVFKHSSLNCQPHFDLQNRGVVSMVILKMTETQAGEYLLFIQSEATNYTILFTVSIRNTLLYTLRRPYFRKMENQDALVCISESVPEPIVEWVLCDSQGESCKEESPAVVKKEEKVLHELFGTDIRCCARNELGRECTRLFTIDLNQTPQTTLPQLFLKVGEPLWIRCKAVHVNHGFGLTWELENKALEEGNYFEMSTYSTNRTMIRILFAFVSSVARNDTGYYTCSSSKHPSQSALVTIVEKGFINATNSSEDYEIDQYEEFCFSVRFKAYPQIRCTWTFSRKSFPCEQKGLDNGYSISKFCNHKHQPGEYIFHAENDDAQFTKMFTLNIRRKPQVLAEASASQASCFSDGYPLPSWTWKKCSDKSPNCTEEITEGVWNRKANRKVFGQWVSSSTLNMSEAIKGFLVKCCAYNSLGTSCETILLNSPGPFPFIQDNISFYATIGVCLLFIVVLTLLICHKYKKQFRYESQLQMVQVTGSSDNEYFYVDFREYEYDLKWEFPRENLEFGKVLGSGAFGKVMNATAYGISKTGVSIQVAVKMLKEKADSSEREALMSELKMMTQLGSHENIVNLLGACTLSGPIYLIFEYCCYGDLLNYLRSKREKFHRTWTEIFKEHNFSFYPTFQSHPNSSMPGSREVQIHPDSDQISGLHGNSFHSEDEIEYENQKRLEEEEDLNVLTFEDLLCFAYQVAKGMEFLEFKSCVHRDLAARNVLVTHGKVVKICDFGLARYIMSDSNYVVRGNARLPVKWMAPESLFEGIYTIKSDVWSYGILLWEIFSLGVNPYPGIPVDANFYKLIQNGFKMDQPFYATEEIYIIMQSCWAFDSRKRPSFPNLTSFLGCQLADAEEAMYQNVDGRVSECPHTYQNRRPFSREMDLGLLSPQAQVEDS
Nature of the test: Kinase panel.

Test [6] deals with T6, IKKα(h) (Homo sapiens, UniProt O15111).
T6 construct: purchased Millipore KinaseProfiler
T6 sequence (O15111 1-745): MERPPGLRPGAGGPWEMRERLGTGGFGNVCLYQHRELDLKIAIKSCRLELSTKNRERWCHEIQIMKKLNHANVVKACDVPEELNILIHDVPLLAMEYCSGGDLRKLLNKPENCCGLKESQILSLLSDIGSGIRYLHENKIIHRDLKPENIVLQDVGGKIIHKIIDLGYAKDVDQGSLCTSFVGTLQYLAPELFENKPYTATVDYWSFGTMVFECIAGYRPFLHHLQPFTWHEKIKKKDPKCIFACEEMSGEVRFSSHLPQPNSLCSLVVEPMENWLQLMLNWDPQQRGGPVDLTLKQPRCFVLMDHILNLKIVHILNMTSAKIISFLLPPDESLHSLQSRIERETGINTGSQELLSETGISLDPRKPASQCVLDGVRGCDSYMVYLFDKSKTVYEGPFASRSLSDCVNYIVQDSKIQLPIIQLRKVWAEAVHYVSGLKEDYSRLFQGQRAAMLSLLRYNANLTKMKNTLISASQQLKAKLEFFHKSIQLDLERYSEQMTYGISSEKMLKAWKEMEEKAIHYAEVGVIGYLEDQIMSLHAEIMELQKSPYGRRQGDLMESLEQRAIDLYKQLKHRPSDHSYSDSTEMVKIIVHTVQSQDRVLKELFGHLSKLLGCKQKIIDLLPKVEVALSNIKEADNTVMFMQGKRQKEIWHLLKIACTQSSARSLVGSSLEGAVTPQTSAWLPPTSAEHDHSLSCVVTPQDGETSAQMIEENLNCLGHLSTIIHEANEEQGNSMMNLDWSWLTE
Put plainly: Kinase panel.

Test [7] deals with T7, MSK1(h) (Homo sapiens, UniProt O75582).
T7 construct: purchased Millipore KinaseProfiler
Put plainly: Kinase panel.

In test [8] the target is T8, Ret(h) (Homo sapiens, UniProt P07949).
T8 construct: purchased Millipore KinaseProfiler
Nature of the test: Kinase panel.

Test [9] has as its target T9, ROCK-II(r) (Rattus norvegicus, UniProt Q62868).
T9 construct: purchased Millipore KinaseProfiler
Nature of the test: Kinase panel.

For test [10], the target named is T10, WNK3(h) (Homo sapiens, UniProt Q9BYP7).
T10 construct: purchased Millipore KinaseProfiler
Put plainly: Kinase panel.

Test [11] addresses PKCα (Homo sapiens, UniProt P17252). Nature of the test: Kinase IC50 assay.

T3 sequence (O96017 whole entry I157T): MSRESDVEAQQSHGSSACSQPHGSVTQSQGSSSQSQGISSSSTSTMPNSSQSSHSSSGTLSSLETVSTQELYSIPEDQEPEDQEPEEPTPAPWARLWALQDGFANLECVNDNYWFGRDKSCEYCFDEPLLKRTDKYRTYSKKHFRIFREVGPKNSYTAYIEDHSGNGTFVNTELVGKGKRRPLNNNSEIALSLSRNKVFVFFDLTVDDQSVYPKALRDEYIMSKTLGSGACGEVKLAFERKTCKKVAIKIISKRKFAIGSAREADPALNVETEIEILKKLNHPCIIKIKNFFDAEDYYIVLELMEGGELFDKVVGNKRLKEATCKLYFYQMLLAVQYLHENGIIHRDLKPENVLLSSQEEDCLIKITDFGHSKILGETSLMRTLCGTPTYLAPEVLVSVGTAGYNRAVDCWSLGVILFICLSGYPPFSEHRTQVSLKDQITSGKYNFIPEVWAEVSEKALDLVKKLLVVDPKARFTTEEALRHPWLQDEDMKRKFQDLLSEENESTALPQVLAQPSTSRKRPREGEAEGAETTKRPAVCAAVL
T4 sequence (P00533 25-1210 T790M): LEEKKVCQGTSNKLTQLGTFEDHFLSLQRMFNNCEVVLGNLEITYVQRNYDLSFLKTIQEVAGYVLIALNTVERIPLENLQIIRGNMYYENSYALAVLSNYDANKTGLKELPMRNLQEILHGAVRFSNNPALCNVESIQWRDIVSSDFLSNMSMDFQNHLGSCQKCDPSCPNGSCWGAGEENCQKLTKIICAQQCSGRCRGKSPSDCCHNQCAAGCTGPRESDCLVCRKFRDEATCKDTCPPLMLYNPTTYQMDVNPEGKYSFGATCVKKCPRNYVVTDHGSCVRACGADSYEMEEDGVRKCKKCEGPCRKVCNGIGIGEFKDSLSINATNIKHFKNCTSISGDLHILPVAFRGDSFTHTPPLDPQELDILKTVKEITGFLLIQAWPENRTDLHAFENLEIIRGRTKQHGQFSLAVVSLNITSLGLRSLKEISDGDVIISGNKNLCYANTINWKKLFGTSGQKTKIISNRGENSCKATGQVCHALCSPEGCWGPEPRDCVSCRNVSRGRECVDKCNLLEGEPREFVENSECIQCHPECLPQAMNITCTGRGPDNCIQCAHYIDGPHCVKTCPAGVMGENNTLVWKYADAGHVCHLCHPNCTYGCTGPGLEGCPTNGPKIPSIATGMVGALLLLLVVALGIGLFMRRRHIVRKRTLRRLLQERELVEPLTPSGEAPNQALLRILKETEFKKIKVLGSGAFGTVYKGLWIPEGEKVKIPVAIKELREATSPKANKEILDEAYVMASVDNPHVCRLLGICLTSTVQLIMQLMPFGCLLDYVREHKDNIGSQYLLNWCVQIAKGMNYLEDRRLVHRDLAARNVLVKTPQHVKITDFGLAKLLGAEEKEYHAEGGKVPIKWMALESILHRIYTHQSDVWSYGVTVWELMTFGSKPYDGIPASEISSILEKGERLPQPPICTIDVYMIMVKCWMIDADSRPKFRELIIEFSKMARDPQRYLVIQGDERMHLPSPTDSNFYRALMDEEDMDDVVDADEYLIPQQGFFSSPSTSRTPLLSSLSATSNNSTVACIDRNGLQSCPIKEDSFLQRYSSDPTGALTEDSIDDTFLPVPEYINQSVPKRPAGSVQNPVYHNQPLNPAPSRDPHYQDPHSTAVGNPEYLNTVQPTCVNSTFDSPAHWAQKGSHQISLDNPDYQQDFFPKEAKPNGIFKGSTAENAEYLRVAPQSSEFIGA
T8 sequence (P07949 29-1114): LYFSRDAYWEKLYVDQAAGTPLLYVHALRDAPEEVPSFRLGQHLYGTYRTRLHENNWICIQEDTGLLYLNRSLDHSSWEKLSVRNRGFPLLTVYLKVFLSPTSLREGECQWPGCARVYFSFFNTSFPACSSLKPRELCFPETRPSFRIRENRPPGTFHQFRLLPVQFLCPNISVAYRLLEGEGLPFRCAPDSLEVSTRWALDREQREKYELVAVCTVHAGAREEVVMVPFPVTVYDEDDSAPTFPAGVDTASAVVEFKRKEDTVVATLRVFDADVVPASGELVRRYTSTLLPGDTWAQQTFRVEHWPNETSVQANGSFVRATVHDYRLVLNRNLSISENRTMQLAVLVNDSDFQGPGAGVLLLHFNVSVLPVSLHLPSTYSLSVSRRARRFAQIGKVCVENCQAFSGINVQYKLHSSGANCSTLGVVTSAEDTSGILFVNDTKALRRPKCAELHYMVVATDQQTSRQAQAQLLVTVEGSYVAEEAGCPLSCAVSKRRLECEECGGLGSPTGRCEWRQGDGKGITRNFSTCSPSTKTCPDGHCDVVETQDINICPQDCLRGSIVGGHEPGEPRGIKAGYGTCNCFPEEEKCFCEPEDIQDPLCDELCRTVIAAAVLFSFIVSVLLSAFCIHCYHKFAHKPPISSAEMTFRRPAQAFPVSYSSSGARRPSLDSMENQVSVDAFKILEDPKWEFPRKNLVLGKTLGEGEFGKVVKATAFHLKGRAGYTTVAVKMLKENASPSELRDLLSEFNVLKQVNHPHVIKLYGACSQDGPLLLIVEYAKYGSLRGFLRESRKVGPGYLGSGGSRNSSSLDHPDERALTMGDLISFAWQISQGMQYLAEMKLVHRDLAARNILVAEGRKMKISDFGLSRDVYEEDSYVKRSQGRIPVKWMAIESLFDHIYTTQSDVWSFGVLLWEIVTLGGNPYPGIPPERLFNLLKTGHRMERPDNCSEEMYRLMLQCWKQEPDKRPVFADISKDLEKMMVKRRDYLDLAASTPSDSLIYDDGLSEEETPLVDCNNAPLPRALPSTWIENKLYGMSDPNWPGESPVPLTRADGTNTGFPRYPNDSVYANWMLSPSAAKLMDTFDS
T7 sequence (O75582 whole entry): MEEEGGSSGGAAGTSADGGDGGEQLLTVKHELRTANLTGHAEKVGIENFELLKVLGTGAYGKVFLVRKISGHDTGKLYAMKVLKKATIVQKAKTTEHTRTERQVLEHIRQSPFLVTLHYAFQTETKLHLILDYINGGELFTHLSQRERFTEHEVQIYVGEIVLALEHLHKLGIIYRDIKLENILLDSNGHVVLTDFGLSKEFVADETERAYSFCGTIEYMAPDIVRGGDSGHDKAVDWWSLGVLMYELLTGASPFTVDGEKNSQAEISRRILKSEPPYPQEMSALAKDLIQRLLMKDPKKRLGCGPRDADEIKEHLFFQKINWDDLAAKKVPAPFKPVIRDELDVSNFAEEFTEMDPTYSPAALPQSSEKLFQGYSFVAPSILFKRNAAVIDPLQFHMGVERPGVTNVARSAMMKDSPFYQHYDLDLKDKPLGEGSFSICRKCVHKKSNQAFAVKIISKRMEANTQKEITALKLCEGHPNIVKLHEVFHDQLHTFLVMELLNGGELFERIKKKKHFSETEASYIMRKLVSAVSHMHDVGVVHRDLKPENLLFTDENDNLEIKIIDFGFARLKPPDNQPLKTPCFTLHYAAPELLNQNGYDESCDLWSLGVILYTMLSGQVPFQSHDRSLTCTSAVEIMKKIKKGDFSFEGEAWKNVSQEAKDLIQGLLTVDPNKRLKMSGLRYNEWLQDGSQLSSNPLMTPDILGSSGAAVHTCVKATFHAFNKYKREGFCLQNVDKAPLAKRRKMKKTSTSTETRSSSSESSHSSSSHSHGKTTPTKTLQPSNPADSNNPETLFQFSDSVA
T9 sequence (Q62868 2-543 limits assumed): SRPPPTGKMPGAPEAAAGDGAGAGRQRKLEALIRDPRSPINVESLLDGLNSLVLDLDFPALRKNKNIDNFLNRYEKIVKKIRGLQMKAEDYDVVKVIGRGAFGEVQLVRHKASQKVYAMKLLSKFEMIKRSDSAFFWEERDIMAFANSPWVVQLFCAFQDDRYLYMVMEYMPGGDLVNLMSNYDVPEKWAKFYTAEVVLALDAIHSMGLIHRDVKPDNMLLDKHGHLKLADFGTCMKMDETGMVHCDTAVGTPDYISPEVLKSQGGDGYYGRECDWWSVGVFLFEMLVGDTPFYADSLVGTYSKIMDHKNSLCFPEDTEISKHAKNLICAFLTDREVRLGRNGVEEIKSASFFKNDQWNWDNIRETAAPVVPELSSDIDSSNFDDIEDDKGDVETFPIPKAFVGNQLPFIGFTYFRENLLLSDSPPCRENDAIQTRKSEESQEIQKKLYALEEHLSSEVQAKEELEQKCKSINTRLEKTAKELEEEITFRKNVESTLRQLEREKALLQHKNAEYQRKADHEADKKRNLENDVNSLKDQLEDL
T1 sequence (Q13554 whole entry): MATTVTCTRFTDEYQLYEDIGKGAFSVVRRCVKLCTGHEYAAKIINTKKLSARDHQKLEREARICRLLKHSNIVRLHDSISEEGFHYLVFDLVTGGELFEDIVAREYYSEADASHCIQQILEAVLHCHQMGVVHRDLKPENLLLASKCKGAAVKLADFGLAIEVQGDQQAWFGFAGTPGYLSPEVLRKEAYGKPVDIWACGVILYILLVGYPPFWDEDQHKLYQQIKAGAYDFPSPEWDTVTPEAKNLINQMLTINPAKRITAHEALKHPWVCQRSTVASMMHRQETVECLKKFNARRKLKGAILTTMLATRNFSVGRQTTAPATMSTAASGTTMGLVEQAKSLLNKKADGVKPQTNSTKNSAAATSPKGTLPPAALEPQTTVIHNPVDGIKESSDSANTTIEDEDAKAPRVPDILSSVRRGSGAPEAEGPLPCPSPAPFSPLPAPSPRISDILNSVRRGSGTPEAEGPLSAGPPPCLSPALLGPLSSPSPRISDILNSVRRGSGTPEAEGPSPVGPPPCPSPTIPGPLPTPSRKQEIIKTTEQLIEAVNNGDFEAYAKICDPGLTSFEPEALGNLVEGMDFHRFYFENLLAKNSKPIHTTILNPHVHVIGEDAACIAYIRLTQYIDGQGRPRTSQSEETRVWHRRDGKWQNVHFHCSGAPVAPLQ

For orientation: inhibition means the change of the read-out against control, counted positive when it falls. As a reminder, the IC50 is the concentration that gives 50% inhibition. Read a low IC50 as inhibition by little substance. In the case of `Cn1ncc(Cl)c1-c1cc(C(=O)N[C@H](CN)Cc2cccc(F)c2)sc1Cl` [GSK2110183], the inhibition at 0.5 µM in [1] was 5%; in [2], 13%; in test [3] it was -4%; in test [4] it was -1%; in [5] it was 12%; in test [6], 9%. The inhibition at 0.5 µM in test [7] came to 85%; in [8] it was 4%; in [9], 73%; in test [10], 0%. The inhibition at 10 µM in test [1] turned out to be 61%; in [2], 34%; in test [3] it was 0%; in [4], 2%; in [5] it was 71%; in test [6], 8%. For the same compound, the inhibition at 10 µM was determined as 98% in test [7], 14% in [8], 97% in test [9] and 16% in [10]. Further, the IC50 in test [11] was above 1000 nM.

On to `Cn1ncc(Cl)c1-c1cc(C(=O)N[C@H](CN)Cc2ccc(F)c(F)c2)oc1Cl` [GSK2141795], for which the inhibition at 0.5 µM in test [1] (0.5 µM, read-out: % Inhibition) was 15%; in test [2] (0.5 µM, read-out: % Inhibition), -9%; in [3] (0.5 µM, read-out: % Inhibition), 55%; in test [4] (0.5 µM, read-out: % Inhibition) it was -5%; in test [5] (0.5 µM, read-out: % Inhibition) it was 6%; in test [6] (0.5 µM, read-out: % Inhibition), -12%. Besides, the inhibition at 0.5 µM in test [7] (0.5 µM, read-out: % Inhibition) was 90%; in test [8] (0.5 µM, read-out: % Inhibition), -19%; in test [9] (0.5 µM, read-out: % Inhibition), 72%; in [10] (0.5 µM, read-out: % Inhibition), -2%. The inhibition at 10 µM in test [1] (10 µM, read-out: % Inhibition) was 75%; in test [2] (10 µM, read-out: % Inhibition), 21%; in test [3] (10 µM, read-out: % Inhibition), 88%; in test [4] (10 µM, read-out: % Inhibition), 2%; in test [5] (10 µM, read-out: % Inhibition), 81%; in test [6] (10 µM, read-out: % Inhibition) it was 6%. Also, the inhibition at 10 µM was determined as 95% in [7] (10 µM, read-out: % Inhibition); 31% in test [8] (10 µM, read-out: % Inhibition); 98% in [9] (10 µM, read-out: % Inhibition); 1% in test [10] (10 µM, read-out: % Inhibition). Also, the IC50 in test [11] is above 1000 nM.
